A word on the EC50: it is the concentration needed to bring the measured effect to its halfway point.

This is an account of results in PubChem BioAssay AID489032 (Sanford-Burnham Center for Chemical Genomics, 2010).

Activity calls are given as the source filed them. How the calls were made is not given here.

The subject of the test is UPR adaptive arm reporter cells, luciferase luminescence. Description: activators of adaptive UPR signalling, dose response, cell-based, luciferase luminescence (AID 489032).
Take `O=C(Oc1ccccc1/C=C\C(=O)c1cc2ccccc2o1)c1cccc(F)c1`: the EC50 is > 80 µM (inactive).
The result for `CCc1ccc2[nH]c3nc(SCc4nnc(-c5ccc(C)cc5)o4)nnc3c2c1` reads 39.9 µM (inactive).
The result for `Cc1ccc(Cl)cc1N1CCN(Cc2nc3c(c(=O)[nH]c(=O)n3C)n2CCc2ccccc2)CC1` reads > 80 µM (inactive).
With `COc1ccc(Cn2c(SCc3cc(C)ccc3C)nc3cc(OC)c(OC)cc3c2=N)cc1`, the EC50 is > 80 µM (inactive).
For the compound `NS(=O)(=O)c1ccc(N/N=C/c2cn(-c3ccccc3)nc2-c2cccs2)c([N+](=O)[O-])c1`, the EC50 was > 80 µM (inactive).
The result for `COc1ccc(C(CCNCc2ccc(F)cc2)c2ccc(F)cc2)cc1` (configuration not stated) reads 9.17 µM.
As to `O=C1Nc2ccccc2/C1=C/c1ccc([N+](=O)[O-])cc1`, the EC50 is > 80 µM (inactive).
With `CCOc1ccc(S(=O)(=O)Nc2cccc(C(=O)NCC3(N4CCCCC4)CCCCC3)c2)cc1` the figure was 15.3 µM; with `CCC(=O)Nc1nnc(SCC(=O)c2ccc3c(c2)Cc2ccccc2-3)s1`, > 80 µM (inactive).
With `CCOc1ccc(C(=O)Nc2cc(-c3nc4ccccc4[nH]3)ccc2Cl)cc1[N+](=O)[O-]` the figure was 24.2 µM (inactive); with `Cc1ccc2oc(C(Cl)(Cl)Cl)cc(=O)c2c1`, 28.3 µM (inactive); with `O=C(NCC1CC1)c1cccc2c1C(=O)c1ccc(-c3ccc(OC(F)(F)F)cc3)cc1S2(=O)=O`, > 80 µM (inactive).
The result for `COc1ccc(Nc2nc(N)c([N+](=O)[O-])c(NC3CCCCC3)n2)cc1` reads > 80 µM (inactive); that for `COc1cc([C@H]2c3[nH]c4ccccc4c3C[C@H]3C(=O)N4[C@@H](c5cc(OC)c(OC)c(OC)c5)c5[nH]c6ccccc6c5C[C@H]4C(=O)N23)cc(OC)c1OC`, 12.1 µM; that for `COc1ccc(C(=O)/C=C/c2cccs2)c(OC(=O)c2cccc([N+](=O)[O-])c2)c1`, > 80 µM (inactive).
As to `CCOc1ccc(C(=O)Nc2ccc(NC(=O)c3ccco3)c(Cl)c2)cc1Cl`, the EC50 is > 80 µM (inactive).
The result for `OC(CNCC1CCCO1)Cn1c2ccc(Br)cc2c2cc(Br)ccc21` (configuration not stated) reads > 80 µM (inactive); that for `CC1CCC(C(C)C)C(OC(=O)Cn2c(-c3ccc(Br)cc3)[n+](C)c3ccccc32)C1` (configuration not stated), > 80 µM (inactive); that for `COC(=O)c1c(NC(=O)c2nc3ccccc3s2)sc2c1CC(C)(C)NC2(C)C`, > 80 µM (inactive).
With `Cc1ccc(-c2nn(CC(=O)NCc3cc(-c4nn(C)c(=O)c5ccccc45)ccc3C)c(=O)c3ccccc23)cc1` the figure was > 80 µM (inactive); with `CCCCCCCC(=O)Nc1ccc(C(=O)N/N=C/c2cccc([N+](=O)[O-])c2)cc1`, 18.3 µM.
With `O=C(NCc1ccccc1Br)c1cccc2c1C(=O)c1ccc(-c3ccc(OC(F)(F)F)cc3)cc1S2(=O)=O` the figure was 19.2 µM.
As for `O=C1NC(=O)N(Cc2ccccc2)C(=O)/C1=C\c1ccco1`, the EC50 was > 80 µM (inactive).
In the case of `Cc1cccn2c(=O)c3cc(C(=O)NC4CCCCCC4)sc3nc12`, the EC50 is > 80 µM (inactive).
With `O=[N+]([O-])c1ccc(N/N=C/c2ccc(OCc3cccc4ccccc34)cc2)nc1` the figure was > 80 µM (inactive).
The result for `Nc1nc(Nc2ccccc2)nc(NC2CCCCC2)c1[N+](=O)[O-]` reads 29.2 µM (inactive).
`CCOc1cc(/C=N/NC(=O)Cn2nc([N+](=O)[O-])cc2C)cc(Br)c1OCc1ccccc1C`: the EC50 is > 80 µM (inactive).
The result for `O=C(Nc1ccc2nc3n(c(=O)c2c1)CCCCC3)c1ccccc1Cl` reads > 80 µM (inactive); that for `COc1cc(OC)c2c(-c3cccc(-c4ccc(CO)cc4)c3)cc(=O)oc2c1`, > 80 µM (inactive).
The result for `CCCn1c(SCc2nc3sc(C)c(C)c3c(=O)[nH]2)nc2ccccc2c1=O` reads 72 µM (inactive); that for `CCOc1ccc2nc(NC3=NC(c4ccc(OC)cc4)CC(=O)N3)nc(C)c2c1` (configuration not stated), 15.6 µM.
With `COC(=O)c1cc([N+](=O)[O-])c(-n2ccnc2)c([N+](=O)[O-])c1`, the EC50 is > 80 µM (inactive).
The result for `c1cc(SC2CCCCC2)cc(-c2nc3cnccn3c2NC2CCCCC2)c1` reads 28.9 µM (inactive).
The result for `O=[N+]([O-])c1ccc(N/N=C/c2cccc(O)c2O)c(S(=O)(=O)N2CCOCC2)c1` reads 21.2 µM (inactive); that for `CC(C)N(C(=O)[C@H]1C[C@H](CC(=O)NCC23CC4CC(CC(C4)C2)C3)C(=O)N2CCc3c([nH]c4ccc(Cl)cc34)[C@]12C)C(C)C`, > 80 µM (inactive).
`CCOc1ccccc1CNC(=O)C1CCN(c2nnc(C)c3c(C)n(-c4ccc(C)cc4)nc23)CC1`: the EC50 is > 80 µM (inactive).
With `Cc1ccc2c(c1)C(=O)C(=O)N2Cc1ccc(C(F)(F)F)cc1` the figure was 27.5 µM (inactive); with `CCOC(=O)C1=C(C)N=c2s/c(=C3/C(=O)Nc4ccccc43)c(=O)n2C1c1ccc(C)cc1` (configuration not stated), > 80 µM (inactive); with `COc1ccc(-c2cc(C(F)F)n3ncc(C(=O)Nc4ccc(C(=O)N5CCOCC5)cc4)c3n2)cc1`, > 80 µM (inactive).
With `CCOc1ccccc1-n1c(SCC(=O)Nc2ccc(CC)cc2)nc2n[nH]c(C)c2c1=N` the figure was 5.91 µM; with `CC(C)C(=O)N(c1cc2sc(=O)oc2c2ccccc12)S(=O)(=O)c1cccs1`, > 80 µM (inactive); with `CCOC(=O)c1[nH]c2ccc(Cl)cc2c1NC(=O)/C=C/c1ccc2c(c1)OCO2`, 74.2 µM (inactive).
With `Nc1nc(SCc2ccc(Cl)cc2Cl)nc2nc3c(cc12)CCCC3` the figure was > 80 µM (inactive); with `COC(=O)c1ccc(COc2ccccc2/C=C(\C#N)C(=O)Nc2c(C)cccc2C)cc1`, > 80 µM (inactive); with `Oc1cccc(-c2nc3c4c(ncn3n2)-c2ccccc2CC42CCCC2)c1`, > 80 µM (inactive).
With `CCOC(=O)/C(=C\c1ccccc1)C(=O)c1cc(C(C)=O)c(Nc2ccccc2)s1`, the EC50 is > 80 µM (inactive).
`COc1ccc2c(c1)NC(c1cc(Cl)cc(Cl)c1O)c1cccn1-2` (configuration not stated): the EC50 was 33.3 µM (inactive).
Turning to `COc1ccc(-c2csc(NC(=S)NC(=O)/C=C/c3ccco3)n2)cc1Br`, the EC50 is 41.9 µM (inactive).
The result for `Oc1ccc(/C=N/Nc2ncnc3c2ncn3Cc2ccccc2)cc1O` reads 11 µM; that for `Cc1cc(SCC(=O)c2ccc(O)c(O)c2)n2nc(C)c(-c3ccccc3)c2n1`, > 80 µM (inactive).
With `CCCCC1CCC(C(=O)N(CC(C)C)c2c(N)n(CCCC)c(=O)[nH]c2=O)CC1` (configuration not stated) the figure was > 80 µM (inactive); with `CCC(Sc1nnc2c3ccccc3n(CC)c2n1)C(=O)Nc1sc2c(c1C#N)CCCC2` (configuration not stated), 16.5 µM.
The result for `Oc1cccc2ccc(/C=C/c3ccc(Br)s3)nc12` reads > 80 µM (inactive); that for `COc1ccc2oc(-c3ccc(C)c(NC(=O)c4ccc(N5CCOCC5)c([N+](=O)[O-])c4)c3)nc2c1`, > 80 µM (inactive); that for `Cc1ccc(NC(=O)c2ccc(N/N=C/c3cccc(O)c3)c([N+](=O)[O-])c2)cc1`, > 80 µM (inactive).
For the compound `Cc1nc(Nc2nc(-c3ccccc3)cc(=O)[nH]2)nc2ccccc12`, the EC50 was 11.9 µM.
Consider `Cc1[nH]c2ccccc2c1/C=C/c1nc2ccccc2c(=O)n1-c1ccc([N+](=O)[O-])cc1`, for which the EC50 was > 80 µM (inactive).
With `CCOC(=O)C(=CNc1nc(-c2ccccc2)c(C(=O)Nc2ccc(-c3ccccc3)cc2)s1)C(=O)OCC` the figure was 24.7 µM (inactive); with `COc1cc2nc(N3CCN(c4cc(C)ccc4C)CC3)nc(N)c2cc1OC`, > 80 µM (inactive).
On to `Cc1ccc(Cn2c(C(C)Nc3nc(-c4ccc(F)cc4)cs3)nc3cc(Cl)c(Cl)cc32)cc1` (configuration not stated), for which the EC50 is > 80 µM (inactive).
With `O=C(CC1C[C@H](C(=O)N2CCCCC2)[C@@]2(CCc3ccccc3)c3[nH]c4ccccc4c3CCN2C1=O)NCCC1=CCCCC1` (some centres not stated) the figure was 43 µM (inactive); with `CC(C)=CCc1c2c(c3occ(-c4ccc(O)cc4)c(=O)c3c1O)C=CC(C)(C)O2`, > 80 µM (inactive).
With `CC1(C)C=Cc2c(c3c(c4c(=O)c(-c5ccc(O)cc5)coc24)OC(C)(C)CC3)O1` the figure was > 80 µM (inactive).
With `O=C(Nc1ccc(O)c2c(=O)cc(-c3cccc(Cl)c3)oc12)c1cccc(Cl)c1` the figure was 20.9 µM (inactive).
Regarding `COc1cc(/C=C2/C(=N)N3C=CSC3=NC2=O)ccc1OCCCOc1cc(C)ccc1C`, the EC50 was > 80 µM (inactive).
The result for `COc1ccc(/C=c2\s/c(=C(/C#N)C(=O)NCc3ccco3)n(-c3ccccc3)c2=O)cc1` reads > 80 µM (inactive); that for `Cc1ccc(NC(=O)COc2ccc(/C=C3/SC(=Nc4ccccc4)N(Cc4cccnc4)C3=O)cc2)cc1`, 34.4 µM (inactive).
With `O=c1oc(CCCO)cc2ccc(/C=C/c3cccc([N+](=O)[O-])c3)cc12`, the EC50 was 36.8 µM (inactive).
The result for `COc1ccc2cc1Oc1ccc(cc1)C[C@H]1c3c(cc(OC)c4c3Oc3c(ccc5c3[C@H](C2)N(C)CC5)O4)CCN1C` reads > 80 µM (inactive); that for `CSC1=NC(C)(C)C=C(/C=C/c2ccc(Cl)cc2)N1`, > 80 µM (inactive); that for `Cc1ccc(-n2nc3c(N4CCC(C(=O)NCCc5cccs5)CC4)nnc(C)c3c2C)cc1`, > 80 µM (inactive).
With `COc1ccc(NC(=O)CSc2nc3ccc(Nc4nc(N5CCOCC5)nc(N5CCOCC5)n4)cc3s2)cc1` the figure was > 80 µM (inactive).
With `CN(/N=C\c1ccc(O)c(O)c1)c1nc(-c2ccccc2)cc(-c2ccccc2)n1` the figure was 8.69 µM; with `COc1ccc(/C=N/NC(=O)c2cccc([N+](=O)[O-])c2)c2ccccc12`, > 80 µM (inactive).
Consider `Cc1c(NC(=O)CSc2ccc(Cl)cc2)cccc1-c1nc2cc(Cl)ccc2o1`, for which the EC50 was > 80 µM (inactive).
The result for `Cc1ccc(S(=O)(=O)N(CC(=O)N/N=C/c2ccc(F)cc2)c2cccc3cccnc23)cc1` reads > 80 µM (inactive); that for `COc1ccc(NC(=O)c2sc3nc(N4CCOCC4)c4c(c3c2N)CC(C)(C)OC4)c(OC)c1`, > 80 µM (inactive).
